Measurements published in PubChem BioAssay (NCI).
Several values for one entry are separate records, joined by “and”; a condition that tells them apart may be missing. Equal entries are not always repeated.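 The compound was tested at five concentrations on cells cultured in 96-well plates, with a 48-hour exposure period. GI50 marks 50% less growth. TGI is the concentration that stops growth completely.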

What was measured:
Assay in all cases: DTP human tumour cell line panel, 48 h
786-0 renal = test system: 786-0 renal
ACHN renal = test system: ACHN renal
HL-60(TB) leukemia = test system: HL-60(TB) leukemia
HOP-92 NSCLC = test system: HOP-92 NSCLC
HT29 colon = test system: HT29 colon
KM12 colon = test system: KM12 colon
MDA-MB-435 = test system: MDA-MB-435
NCI-H460 lung = test system: NCI-H460 lung
PC-3 prostate = test system: PC-3 prostate
U251 CNS = test system: U251 CNS

SMILES | TGI (786-0 renal) | TGI (ACHN renal) | TGI (HL-60(TB) leukemia) [µM] | TGI (HOP-92 NSCLC) | TGI (HT29 colon) [µM] | TGI (KM12 colon) [µM] | TGI (MDA-MB-435) [µM] | TGI (NCI-H460 lung) [µM] | TGI (PC-3 prostate) [µM] | TGI (U251 CNS) [µM] | GI50 (786-0 renal) [µM] | GI50 (ACHN renal) [µM] | GI50 (HL-60(TB) leukemia) [µM] | GI50 (HOP-92 NSCLC) [µM] | GI50 (KM12 colon) [µM] | GI50 (MDA-MB-435) [µM] | GI50 (NCI-H460 lung) [µM] | GI50 (U251 CNS) [µM] | GI50 (HT29 colon) [µM] | GI50 (PC-3 prostate) [µM]
CNC(=S)N(C1CCCCC1)C1CCCCC1 | > 100 µM | > 100 µM | > 100 | > 100 µM | > 100 | > 100 | > 100 | > 100 | > 100 | > 100 | – | – | – | – | – | – | – | – | – | –
CCC1(N)C(=O)OCc2c1cc1n(c2=O)Cc2cc3ccccc3nc2-1 (stereo unspecified) | 49.8 µM and > 54.6 µM | 12.2 µM and 21.3 µM | – | > 100 µM and 99 µM | > 100 | > 100 | > 100 | – | > 100 | > 100 | 3.31 | 2.75 | 4.44 | 28.4 | 26.1 | 21.1 | 1.72 | 4.9 | – | –
CN1CCN(c2ccc(-c3cccc(CN4CCOCC4)c3)cc2NC(=O)c2c[nH]c(=O)cc2C(F)(F)F)CC1 | > 100 µM | > 100 µM | > 100 | > 100 µM | 58.3 | > 100 | > 100 | > 100 | > 100 | > 100 | 41.8 | 40.4 | 36.4 | 10.7 | 46.8 | 30.2 | 45.8 | 23.6 | 17.9 | 32.3
N#CC(C(=O)O)C(c1c(Cl)cccc1Cl)C(C#N)C(=O)O (stereo unspecified) | > 100 µM | > 100 µM | > 100 | > 100 µM | > 100 | > 100 | > 100 | > 100 | > 100 | > 100 | – | – | – | – | – | – | – | – | – | –
O=S(=O)(NCCNc1cc(-c2cn(-c3ccccc3)nc2-c2cccc(O)c2)ccn1)c1ccc(Br)cc1 | 7.78 µM | 15.2 µM | 5.76 | 5.06 µM | 5.04 | 7.95 | 3.65 | 5.76 | 6.41 | 5.64 | 2.17 | 3.33 | 2.19 | 2 | 2.59 | 1.79 | 2.39 | 2.21 | 2.17 | 2.07
C#CCN(Cc1nc2cc(C(F)(F)F)ccc2nc1-c1ccccc1)c1ccc(F)cc1 | 54 µM | > 100 µM | > 100 | 86.8 µM | > 100 | 60.9 | > 100 | > 100 | > 100 | > 100 | 20.4 | 36 | 21.8 | 24 | 21.3 | 38 | 27.8 | 38 | 34.9 | 32
COc1cc2c(cc1OC)-c1ncc3cc(OC)c(OC)cc3c1C2 | > 50 µM | > 50 µM | > 50 | > 50 µM | > 50 | > 50 | > 50 | > 50 | > 50 | > 50 | > 50 | > 50 | 16.2 | > 50 | > 50 | > 50 | > 50 | > 50 | > 50 | > 50
CCOC(=O)C(=O)C(/C(=N/N(C)C)C(=O)Nc1ccc(C)cc1C)c1nc2ccccc2[nH]c1=O (stereo unspecified) | > 100 µM | > 100 µM | > 100 | > 100 µM | > 100 | > 100 | > 100 | > 100 | > 100 | > 100 | – | – | – | – | – | – | – | – | – | –
CC(C)=CCc1c(O)c(C(=O)CC(C)C)c(O)c2c(-c3ccccc3)cc(=O)oc12 | > 50 µM | > 50 µM | 27.7 | 4.84 µM | > 50 | > 50 | > 50 | > 50 | 39.8 | > 50 | 10.7 | 5.85 | 7.82 | 1.04 | 12 | 11.8 | 8.03 | 9.59 | 14.1 | 5.71
COc1ccc(-c2cc(-c3ccc(Cl)cc3)nc(SCCCCCCC(=O)NO)n2)cc1 | 3.26 µM | 2.67 µM | 2.8 | 3.67 µM | 16.6 | 13.1 | 11 | 8.9 | 12.7 | 5.9 | 1.16 | 1.11 | 1.19 | 1.17 | 2.2 | 2.12 | 1.29 | 1.37 | 1.71 | 1.69
COc1cc(=O)oc(/C=C/C=C/C=C/C(C)=C\C2(C)OC(C)C(C)(O)C2O)c1C (stereo unspecified) | > 100 µM | > 100 µM | > 100 | > 100 µM | > 100 | > 100 | > 100 | > 100 | > 100 | > 100 | – | – | – | – | – | – | – | – | – | –
O=C(Nc1ccc(N2CCNCC2)cn1)c1[nH]ncc1Nc1ncnc2sccc12 | 3.23 µM | 5.33 µM | 22.6 | 5.65 µM | 3.97 | 11.5 | 3.12 | 3.57 | 3.65 | 3.35 | 1.62 | 2.17 | 2.99 | 1.76 | 3.31 | 1.59 | 1.73 | 1.62 | 1.91 | 1.59
COC(=O)CCCNC(=O)C(=O)c1c(O)c(O)c(C(C)C)c2cc(C)c(-c3c(C)cc4c(C(C)C)c(O)c(O)c(C(=O)C(=O)NCCCC(=O)OC)c4c3O)c(O)c12 | 7.54 µM | 4.09 µM | 6.76 | 2.13 µM | 3.81 | 4.58 | 5.85 | 3.74 | 8.65 | 2.31 | 1.07 | 0.21 | 0.931 | 0.37 | 0.164 | 1.06 | 0.345 | 0.298 | 0.542 | 0.258
